This passage reports activity change, negative = cytotoxicity results from PubChem BioAssay AID720588 (Broad Institute, 2013).

Each structure is given as a SMILES string. Activity calls are given as the source filed them.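 The calls were made as follows: active = fitted curve falls past a set limit of signal loss at no more than twice the top dose; inconclusive = flat fit between 30 and 70% signal loss, or poor fit; inactive = signal rise, flat within 30%, or crossing too high.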

The nature of the first test: HEK293T cell cytotoxicity, dose response, cytotoxicity control, CellTiter-Glo luminescence, cherry-pick, set 3 (AID 720588). The settings on record: HEK293T viability, CellTiter-Glo ATP luminescence, 72 h; at 2.85 µM (top of the series).
As for `COC(=O)C[C@@H]1CC[C@@H]2[C@H](COc3ccc(NC(=O)Nc4cccc(Cl)c4)cc3C(=O)N2C)O1`, the activity change, negative = cytotoxicity is 39.1% (inactive).

The test is the same for the next values; noted with them: HEK293T viability, CellTiter-Glo ATP luminescence, 72 h; at 21 µM (top of the series).
In the case of `C[C@H](CO)N1C[C@H](C)[C@H](CN(C)CC2CCCCC2)Oc2ccc(NC(=O)CCCCCC(=O)Nc3ccccc3N)cc2CC1=O`, the activity change, negative = cytotoxicity was 5.04% (inactive).

As for `COc1ccc(CN(C)C[C@H]2Oc3ccc(NC(=O)CCCCCC(=O)Nc4ccccc4N)cc3CC(=O)N([C@H](C)CO)C[C@H]2C)cc1`, the activity change, negative = cytotoxicity is -29.4% (inactive).

The same test, now with this note: HEK293T viability, CellTiter-Glo ATP luminescence, 72 h; at 26 µM (top of the series).
As to `CC1(CCc2ccccc2)NC(=O)N(CC(=O)N2CC(=O)Nc3ccccc32)C1=O` (stereo not given), the activity change, negative = cytotoxicity was -7.05% (inactive).

With `O=C(O)c1ccccc1C(=O)Nc1ccc(Oc2ccc3ccccc3c2)cc1`, the activity change, negative = cytotoxicity is -15.8% (inactive).

Consider `O=C(O)c1ccc(N/N=C/c2c(F)cccc2Cl)cc1`, for which the activity change, negative = cytotoxicity is -29.9% (inactive).

For the compound `O=C(C1CC1)N1C[C@@H]2N[C@H](C1)C2c1ccc(/C=C/c2ccccc2)cc1` (stereo not given in full), the activity change, negative = cytotoxicity was -31.7% (inactive).

With `Cc1cc(C(=O)CN2C(=O)c3ccccc3S2(=O)=O)c(C)n1C(C)C`, the activity change, negative = cytotoxicity is 15.7% (inactive).

Consider `Nc1ncn([C@@H]2O[C@H](CO)[C@@H](O)[C@H]2O)c(=O)n1`, for which the activity change, negative = cytotoxicity is 4.13% (inactive).

Take `CCOc1ccc(-c2cc(CCCC(=O)N3CCN(c4ccc(OC)cc4)CC3)no2)cc1`: the activity change, negative = cytotoxicity is -8.72% (inactive).

As for `O=C(C[C@@H]1C[C@H]2c3cc(NC(=O)CC4CC4)ccc3O[C@H]2[C@H](CO)O1)NCc1ccccc1F`, the activity change, negative = cytotoxicity is 13.3% (inactive).

For `COc1ccccc1-c1cn(CC[C@H]2CC[C@@H](NC(=O)C3CCCC3)[C@@H](CO)O2)nn1`, the activity change, negative = cytotoxicity was 0.512% (inactive).

On to `O=C(CNC(c1ccccc1)c1ccccc1)Nc1ccccc1-c1ccccc1`, for which the activity change, negative = cytotoxicity was -23.7% (inactive).

Turning to `Cc1c(-c2nc(-c3ccc(C(C)(C)C)cc3)no2)n(C)oc1=O`, the activity change, negative = cytotoxicity is -15.2% (inactive).

As to `CC(=O)Nc1ccc(OCC(=O)N(CC(C)C)C2CCS(=O)(=O)C2)cc1` (stereo not given), the activity change, negative = cytotoxicity is 10.7% (inactive).

For the compound `Cc1nc2ncccn2c1-c1csc(Nc2ccc(O)cc2)n1`, the activity change, negative = cytotoxicity is 23.7% (inactive).

On to `O=C(Nc1cccc(S(=O)(=O)N2CCCC2)c1)c1ccc(Cl)nc1`, for which the activity change, negative = cytotoxicity was -35.5% (inactive).

For `COc1ccc(Cl)cc1S(=O)(=O)Nc1ccc2c(c1)n(C)c(=O)n2C`, the activity change, negative = cytotoxicity is -13.3% (inactive).

With `OCC1OC(n2cnc3c(NCc4ccco4)ncnc32)C(O)C1O` (stereo not given), the activity change, negative = cytotoxicity was -35.2% (inactive).

With `C[C@H](CO)N1C[C@H](C)[C@@H](CN(C)Cc2ccc(Oc3ccccc3)cc2)Oc2ccc(NS(=O)(=O)c3ccc(Cl)cc3)cc2CC1=O`, the activity change, negative = cytotoxicity was -17.7% (inactive).

`CN(C)C(=O)c1cccc(-c2ccc(C3[C@@H]4CN(Cc5nccs5)C[C@H]3N4)cc2)c1` (stereo not given in full): the activity change, negative = cytotoxicity was 51.7% (inactive).

Take `CC(C)(C)c1ccc(Oc2ccc(NC(=O)c3ccccc3C(=O)O)cn2)cc1`: the activity change, negative = cytotoxicity is 16.5% (inactive).

On to `Cc1ccc2oc(/N=C(\N)NC(=O)C(C)(C)C)nc2c1`, for which the activity change, negative = cytotoxicity is -11% (inactive).

On to `CCCCNC1=CC(=O)C(=O)c2ccccc21`, for which the activity change, negative = cytotoxicity is -32.1% (inactive).

As to `O=C(NCc1ccccn1)c1ccc(CNS(=O)(=O)c2cccc(Cl)c2)cc1`, the activity change, negative = cytotoxicity is -15.8% (inactive).

For the compound `COc1ccccc1N(/N=C1\Sc2ccccc2C1=O)C(C)=O`, the activity change, negative = cytotoxicity is -23.6% (inactive).

For the compound `Nc1ccc(-c2cc3ccccc3c(=O)o2)cc1`, the activity change, negative = cytotoxicity was -6.69% (inactive).

Consider `O=C(O)c1ccc(N/N=C/c2c[nH]c3ccccc23)cc1`, for which the activity change, negative = cytotoxicity is 6.31% (inactive).

As to `COc1ccc(Nc2ncnc3ccc(Br)cc23)c(OC)c1`, the activity change, negative = cytotoxicity was -18.8% (inactive).

For the compound `Cc1cc(Br)ccc1N=C1C(=O)Nc2ccccc21`, the activity change, negative = cytotoxicity was -16.9% (inactive).

Turning to `Cc1ccc(OCCNC(=O)c2cccc(S(=O)(=O)NCc3ccccc3)c2)cc1`, the activity change, negative = cytotoxicity was 12.3% (inactive).

For `C[C@@H]1CN([C@@H](C)CO)C(=O)Cc2cc(NS(=O)(=O)c3cccs3)ccc2O[C@H]1CN(C)Cc1ccc(Cl)c(Cl)c1`, the activity change, negative = cytotoxicity is -34.4% (inactive).

`Cc1ccc2c(=O)n3c(nc2c1)C(Cc1ccc(O)cc1)NC(=O)c1cc2ccccc2cc1-3` (stereo not given): the activity change, negative = cytotoxicity was -16.8% (inactive).

For `COc1cc(/C=N\Nc2nc(-c3ccc(C)cc3)c(NC(C)=O)s2)ccc1O`, the activity change, negative = cytotoxicity is -4.57% (inactive).

For `CCn1c(C)cc(C(=O)CN2C(=O)c3ccccc3S2(=O)=O)c1C`, the activity change, negative = cytotoxicity was -4.24% (inactive).

`C[C@H]1CCCCO[C@H](CN(C)Cc2ccc(C(F)(F)F)cc2)[C@@H](C)CN([C@@H](C)CO)C(=O)c2cc(NC(=O)Nc3ccccc3)ccc2O1`: the activity change, negative = cytotoxicity is 0.212% (inactive).

For `Cc1cccc(NC(=O)CN2CCN(C(=O)CNC(=O)c3ccc(-c4ccccc4)cc3)CC2)c1C`, the activity change, negative = cytotoxicity is -18.2% (inactive).

For the compound `CCOc1cc(N2CCC(O)CC2)ccc1Nc1ncc2c(n1)N(C)c1ccccc1C(=O)N2C`, the activity change, negative = cytotoxicity was 22.8% (inactive).

Turning to `O=C(NC(=O)c1ccccc1)Nc1ccccc1`, the activity change, negative = cytotoxicity was -31.5% (inactive).

Consider `COc1ccc(/C=C2\SC(=S)N(CCCC(=O)NNC(=O)c3ccccc3O)C2=O)cc1`, for which the activity change, negative = cytotoxicity is 13.3% (inactive).

As to `CC(C)CC(NC(=O)c1cccs1)c1nnc(SCc2ccc(Cl)c(Cl)c2)n1C` (stereo not given), the activity change, negative = cytotoxicity was -6.67% (inactive).

Take `O=C(COC(=O)c1ccc[nH]c1=O)Nc1ccc(N2CCCCC2)cc1`: the activity change, negative = cytotoxicity was -10.3% (inactive).

With `C[C@H]1CN([C@@H](C)CO)C(=O)Cc2cc(NC(=O)CCCCCC(=O)Nc3ccccc3N)ccc2O[C@H]1CN(C)Cc1ccc(Oc2ccccc2)cc1`, the activity change, negative = cytotoxicity is -3.08% (inactive).

Regarding `O=C1NC2C(=CC(O)C(O)C2O)c2cc3c(cc21)OCO3` (stereo not given), the activity change, negative = cytotoxicity was -41.4% (inactive).

As to `COc1cc(-c2cnc3c(NC=O)cc(-c4cccc(NC(C)=O)c4)cn23)cc(OC)c1OC`, the activity change, negative = cytotoxicity is 27.3% (inactive).

Turning to `COc1ccc(NC(=O)N2CCCCN3[C@H](CO)[C@H](c4ccc(C#CCC(C)C)cc4)[C@H]3C2)cc1`, the activity change, negative = cytotoxicity was -56.2% (inactive).

Turning to `Cc1cccc(N2CCN(C3C(=O)Nc4ccccc4-n4nnnc43)CC2)c1C` (stereo not given), the activity change, negative = cytotoxicity is -24.4% (inactive).

Consider `CCCc1nc2ccc(NC(=O)c3cccs3)cc2c(=O)n1Cc1ccccc1Cl`, for which the activity change, negative = cytotoxicity is -2.41% (inactive).

With `C[C@@H]1CN([C@@H](C)CO)S(=O)(=O)c2ccc(C#CCN(C)C)cc2O[C@@H]1CN(C)Cc1ccncc1`, the activity change, negative = cytotoxicity is 52.2% (inactive).

On to `C[C@@H]1CN([C@H](C)CO)C(=O)c2cc(NC(=O)CCCCCC(=O)Nc3ccccc3N)ccc2O[C@@H]1CN(C)Cc1ccc(Cl)c(Cl)c1`, for which the activity change, negative = cytotoxicity was -5.39% (inactive).
